Data on three compounds can be found in patent US8198317B2, “Methylenedioxy phenolic compounds and their use to treat disease” (The Ohio State University Research Foundation, priority 2008, dated 2012).

Molecules are shown by their SMILES.

Common to all, as to format: in vivo, human
The subject of one assay is Patient. Kind of assay: Treatment of a patient with recent myocardial infarction (Examples 16-18). The following applies: oral, 1.0 to 100 mg/kg. The procedure: (§1) A person presents with sudden chest pain typically radiating to the left arm or left side of the neck, shortness of breath, nausea and palpitation with vomiting and sweating. After being evaluated with an electrocardiogram (EKG, ECG), a chest X-ray and blood tests to detect elevations in cardiac markers (blood tests to detect heart muscle damage), they are diagnosed as suffering from myocardial infarction. The patient is administered therapy such as aspirin, a drug to reduce the tendency of platelet aggregation, such as clopidogrel bisulfate, a statin, IV heparin and taken to the catheterization laboratory where they undergo stenting of the coronary artery. They are allowed to recover for a 12-24 hour period. Oral therapy with 3,4-methylenedioxy-6-nitrophenyl acetate (INV 75) (1.0 to 100 mg/kg) is started and continued for at least a year. During the follow-up visit a month later, patient reports improvement in symptoms.
as §1, with “Oral therapy with 3,4-methylenedioxy-6-nitrophenyl acetate (INV 75) (1.0 to 100 mg/kg) is started and continued for at least a year. During the follow-up visit a month later, patient reports improvement in symptoms.” left out
A person presents with sudden chest pain typically radiating to the left arm or left side of the neck, shortness of breath, nausea and palpitation with vomiting and sweating. After being evaluated with an electrocardiogram (EKG, ECG), a chest X-ray and blood tests to detect elevations in cardiac markers (blood tests to detect heart muscle damage), they are diagnosed as suffering from myocardial infarction. […]

In another assay the test system is Humans. Kind of assay: Treatment of atherosclerosis in humans, primary prevention (Example 22). The following applies: oral, in excess of 12 months. From the text: Individuals with risk factors for atherosclerosis such as family history, hypertension and high cholesterol are known to be at risk for future cardiovascular events such as heart attacks and strokes. These individuals are on primary prevention treatments such as hypolipidemic drug therapy such as statins aspirin and anti-hypertensive agents such as ACE inhibitors, diuretics or calcium channel blockers. They also will receive an acceptable dose of a composition comprising a compound of the present invention in an acceptable carrier orally chronically for durations in excess of 12 months. In one study, 3,4-methylenedioxy phenyl acetate (INV 73); 3,4-methylenedioxy-6-nitrophenol (INV 74); 3,4-methylenedioxy-6-nitrophenyl acetate (INV 75); 3,4-Methylenedioxy 6-nitro phenyl lipoate (INV-7465) or 3,4-Methylenedioxy phenyl lipoate (INV-7065) are administered to these individuals. A repeat IVUS measurement is made at the end of the treatment period to assess the effect of the infusion of the composition on coronary atherosclerosis in the target vessel.

The subject of a further assay is Patients. Kind of assay: Treatment of patients with Type I and Type II diabetes (Example 24). As to conditions: diabetic patients, oral, 12 months. From the text: Individuals with Type I and Type II diabetes are at risk for future cardiovascular events such as heart attacks, strokes and kidney disease. These individuals are on prevention treatments such as hypolipidemic drug therapy such as statins and anti-hypertensive agents such as ACE inhibitors. They are already receiving glycemia lowering strategies such as Insulin, PPARγ agents, Metformin or sulfonylurea therapy. They also will receive an acceptable dose of a composition comprising a compound of the present invention in an acceptable carrier orally chronically for durations in excess of 12 months. In one study, 3,4-Methylenedioxy 6-nitro phenyl lipoate (INV-7465) or 3,4-Methylenedioxy phenyl lipoate (INV-7065) are administered to these individuals. The patients undergo the following measurements: HbA1C to assess glycemic control, urinary microalbuminura, blood pressure and lipid measurements. At the end of 12 months of treatment, there is lowering of HbA1C and urinary microalbuminuria. There is an improvement in VLDL cholesterol and a decrease in triglycerides with any of these treatments [(3,4-methylenedioxy phenyl acetate (INV 73); 3,4-methylenedioxy-6-nitrophenol (INV 74); 3,4-methylenedioxy-6-nitrophenyl acetate (INV 75); 3,4-Methylenedioxy 6-nitro phenyl lipoate (INV-7465) or 3,4-Methylenedioxy phenyl lipoate (INV-7065)].

For `O=C(CCCCC1CCSS1)Oc1cc2c(cc1[N+](=O)[O-])OCO2` (stereo not shown) [INV-7465, 3,4-Methylenedioxy 6-nitro phenyl lipoate], in the assay on Patient, the “symptoms at follow-up visit a month later” value (“symptoms” below) is given as “improvement”. Moreover, the “plaque in the atherosclerotic coronary artery (IVUS)” value (from here on “plaque”) in the assay with Humans was “reduced”. For the same compound, in the assay on Patients, the HbA1C entry is on record as “lowering”, the VLDL cholesterol entry was “improvement”, the triglycerides result was “decrease” and the urinary microalbuminuria entry is “lowering”.
Turning to `CC(=O)Oc1cc2c(cc1[N+](=O)[O-])OCO2` [INV-75, 3,4-methylenedioxy-6-nitrophenyl acetate], the “symptoms” value with Patient is recorded as “improvement”. Also, in the assay on Humans, the “plaque” value is “reduced”. Also, in the assay with Patients, the VLDL cholesterol entry is on record as “improvement” and the triglycerides entry is recorded as “decrease”.
For `O=C(CCCCC1CCSS1)Oc1ccc2c(c1)OCO2` (stereo not shown) [INV-7065, 3,4-Methylenedioxy phenyl lipoate], the “symptoms” value in the assay with Patient is reported as “improvement”. Further, the “plaque” value with Humans is “reduced”. For the same compound, in the assay with Patients, the HbA1C entry is recorded as “lowering”, the VLDL cholesterol entry is listed as “improvement”, the triglycerides result is given as “decrease” and the urinary microalbuminuria entry is listed as “lowering”.
